Key:
MDA-MB-436 cells = assay: Growth inhibition assay against BRCA mutant human breast cancer MDA-MB-436 cell line (CCK-8); type: cell-based; settings: proliferation of MDA-MB-436 cells, 7 days
[1] = biological target: recombinant poly(ADP-ribose) polymerase 1 (PARP1) (Homo sapiens (Human), UniProt P09874)
PDE3A = PDE3A (Homo sapiens (Human), UniProt Q14432); assay: PDE3A fluorescence polarization (FP) assay; type: biochemical; settings: PDE3A enzyme activity, FAM-cAMP substrate
Experimental: A PDE3A fluorescence polarization (FP) assay in a multi-step format was performed using black, round bottom 384-well plates (Corning, 4514). The testing compounds were serially diluted from stock solutions to 11 concentrations with a 3-fold dilution factor using DMSO. Fifty nl of compound dilutions was mixed with 5 μl of reaction buffer (10 mM Tris-HCl, pH 7.2, 10 mM MgCl2, 0.05% NaN3, 0.1% phosphate-free BSA) containing 0.2 μM FAM-cAMP (BPS, 60200) and 2 nM PDE3A (Sino Biological, 11908-H20B1) enzyme, and incubated for 60 min at 25° C. Afterwards, 15 μl binding agent mixture (Molecular Devices, R8124) was added to each well and the plate was incubated for 60 min at 25° C. The plate was loaded to a BMG PHERAstar FSX to read Fluorescence Polarization (FP) values at a setting of: Ex: 485 nm and Em: 520 nm. Emission light intensity with polarizers parallel (Emi) and emission light intensity with polarizers perpendicular (Emi) were recorded. The Polarization (mP) values were calculated using the following formula: mP=(SignalEml−SignalEm⊥)/(SignalEml+SignalEm⊥).
• 1) The inhibition % of a compound dose is calculated as:
[formula] • wherein mPMin and mPMax refer to the polarization readings in the condition of substrate only and substrate+enzyme, respectively. • 2) The IC50 values were calculated from non-linear curve fitting using following regression equation using a commercial curve fitting software GraphPad Prism 9.2.0.
[formula] • wherein, X refers to Log of compound concentration and Y refers to % Inhibition.

[2] = biological target: recombinant poly(ADP-ribose) polymerase 2 (PARP2); assay: PARP2 chemiluminescent assay; type: biochemical; settings: inhibition of PARP2 enzyme activity, chemiluminescence

recombinant poly(ADP-ribose) polymerase 1 (PARP1), sequence (P09874 whole entry): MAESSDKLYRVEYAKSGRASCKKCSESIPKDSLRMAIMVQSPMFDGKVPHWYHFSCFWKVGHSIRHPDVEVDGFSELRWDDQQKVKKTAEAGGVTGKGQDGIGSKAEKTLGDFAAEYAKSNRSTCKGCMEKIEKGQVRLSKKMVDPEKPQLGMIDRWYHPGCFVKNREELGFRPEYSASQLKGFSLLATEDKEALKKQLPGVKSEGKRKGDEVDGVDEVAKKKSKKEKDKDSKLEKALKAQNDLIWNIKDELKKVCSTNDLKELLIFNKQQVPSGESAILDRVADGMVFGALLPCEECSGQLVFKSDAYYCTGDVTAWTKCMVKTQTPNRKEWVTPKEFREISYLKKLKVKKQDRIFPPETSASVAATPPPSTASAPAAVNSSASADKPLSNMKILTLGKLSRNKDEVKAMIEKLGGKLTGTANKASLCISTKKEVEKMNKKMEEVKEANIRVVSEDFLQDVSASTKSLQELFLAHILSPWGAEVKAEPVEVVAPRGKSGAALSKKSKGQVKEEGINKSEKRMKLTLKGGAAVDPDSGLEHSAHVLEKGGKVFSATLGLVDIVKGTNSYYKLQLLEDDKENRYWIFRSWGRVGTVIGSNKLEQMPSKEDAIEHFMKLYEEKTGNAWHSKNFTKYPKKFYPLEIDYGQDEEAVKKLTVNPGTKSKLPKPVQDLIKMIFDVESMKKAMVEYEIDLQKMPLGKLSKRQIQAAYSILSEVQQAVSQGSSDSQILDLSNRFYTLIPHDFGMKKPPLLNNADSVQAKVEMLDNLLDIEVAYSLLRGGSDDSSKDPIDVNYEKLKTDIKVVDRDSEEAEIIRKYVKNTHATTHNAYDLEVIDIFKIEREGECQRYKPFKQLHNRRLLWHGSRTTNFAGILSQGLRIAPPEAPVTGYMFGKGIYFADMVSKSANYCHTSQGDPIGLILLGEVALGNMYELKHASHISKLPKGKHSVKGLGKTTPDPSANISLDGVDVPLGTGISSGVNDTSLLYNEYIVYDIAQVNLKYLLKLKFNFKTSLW
PDE3A, sequence (Q14432 whole entry): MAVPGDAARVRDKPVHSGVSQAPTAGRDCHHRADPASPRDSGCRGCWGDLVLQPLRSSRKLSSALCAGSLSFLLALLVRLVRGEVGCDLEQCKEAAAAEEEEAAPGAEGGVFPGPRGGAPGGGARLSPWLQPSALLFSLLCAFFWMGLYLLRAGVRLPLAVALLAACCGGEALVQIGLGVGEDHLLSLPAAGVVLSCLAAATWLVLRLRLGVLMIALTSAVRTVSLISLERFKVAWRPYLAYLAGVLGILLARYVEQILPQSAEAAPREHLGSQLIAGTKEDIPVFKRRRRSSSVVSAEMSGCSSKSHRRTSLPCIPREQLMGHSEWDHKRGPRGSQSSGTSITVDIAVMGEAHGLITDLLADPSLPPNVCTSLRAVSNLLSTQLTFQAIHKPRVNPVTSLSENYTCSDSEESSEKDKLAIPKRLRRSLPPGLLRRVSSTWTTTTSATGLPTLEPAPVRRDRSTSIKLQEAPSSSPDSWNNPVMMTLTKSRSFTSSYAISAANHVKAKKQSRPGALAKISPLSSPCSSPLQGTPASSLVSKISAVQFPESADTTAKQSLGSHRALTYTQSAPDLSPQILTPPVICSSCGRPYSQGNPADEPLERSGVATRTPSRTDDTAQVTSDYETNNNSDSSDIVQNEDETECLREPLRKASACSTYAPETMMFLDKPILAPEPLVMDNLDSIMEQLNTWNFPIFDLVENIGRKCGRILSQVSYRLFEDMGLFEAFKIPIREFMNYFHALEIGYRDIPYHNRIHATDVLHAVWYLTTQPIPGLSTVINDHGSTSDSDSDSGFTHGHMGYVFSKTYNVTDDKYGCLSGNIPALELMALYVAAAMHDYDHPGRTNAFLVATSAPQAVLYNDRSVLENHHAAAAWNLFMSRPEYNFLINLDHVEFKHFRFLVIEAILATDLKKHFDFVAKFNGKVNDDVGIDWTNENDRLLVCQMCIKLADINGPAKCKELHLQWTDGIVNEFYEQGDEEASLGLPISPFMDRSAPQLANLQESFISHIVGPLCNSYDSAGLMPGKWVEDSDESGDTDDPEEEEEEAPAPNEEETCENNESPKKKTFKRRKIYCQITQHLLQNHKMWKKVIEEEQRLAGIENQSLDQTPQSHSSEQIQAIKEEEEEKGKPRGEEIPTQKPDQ

SMILES | IC50 (MDA-MB-436 cells; Homo sapiens, MDA-MB-436, […]) | IC50 [1] | IC50 (PDE3A) | IC50 [2] | IC50 (MDA-MB-436 cells)
CNC(=O)c1ccc(N2CCN(Cc3ccc4c([nH]c(=O)c5c(C)cnn54)c3F)CC2)c(C)n1 [Example 57, 7-((4-(2-methyl-6-(methylcarbamoyl)pyridin-3-yl)piperazin-1-yl)methyl)-6-fluoro-3-methylpyrazolo[1,5-a]quinoxalin-4(5H)-one] | 10.6 nM | 1.95 nM | > 30000 nM | > 10000 nM | –
CNC(=O)c1ccc(N2CCN(Cc3ccc4c([nH]c(=O)c5c(C)cnn54)c3F)CC2)c(F)n1 [Example 58, 7-((4-(2-fluoro-6-(methylcarbamoyl)pyridin-3-yl)piperazin-1-yl)methyl)-6-fluoro-3-methylpyrazolo[1,5-a]quinoxalin-4(5H)-one] | 2.99 nM | 1.38 nM | > 30000 nM | > 10000 nM | –
CCNC(=O)c1ccc(N2CCN(Cc3ccc4c([nH]c(=O)c5occc54)c3F)CC2)c(F)n1 [Example 66, 7-((4-(2-fluoro-6-(ethylcarbamoyl)pyridin-3-yl)piperazin-1-yl)methyl)-6-fluorofuro[2,3-c]quinolin-4(5H)-one] | 3.4 nM | 1.72 nM | 16600 nM | 5000 nM | –
CNC(=O)c1ccc(N2CCN(Cc3ccc4c([nH]c(=O)c5occc54)c3F)CC2)c(Cl)n1 [Example 68, 7-((4-(2-chloro-6-(methylcarbamoyl)pyridin-3-yl)piperazin-1-yl)methyl)-6-fluorofuro[2,3-c]quinolin-4(5H)-one] | 4.72 nM | 0.52 nM | 22000 nM | 1870 nM | –
CNC(=O)c1ccc(N2CCN(Cc3ccc4c([nH]c(=O)c5cnn(C)c54)c3F)CC2)c(F)n1 [Example 92, 6-fluoro-7-((4-(2-fluoro-6-(methylcarbamoyl)pyridin-3-yl)piperazin-1-yl)methyl)-1-methyl-1,5-dihydro-4H-pyrazolo[4,3-c]quinolin-4-one] | 3.48 nM | 0.44 nM | > 30000 nM | 199 nM | –
CNC(=O)c1ccc(N2CCN(Cc3cc4[nH]c(=O)c5occc5c4cc3F)CC2)c(F)n1 [Example 102, 7-((4-(2-fluoro-6-(methylcarbamoyl)pyridin-3-yl)piperazin-1-yl)methyl)-8-fluorofuro[2,3-c]quinolin-4(5H)-one] | 5.5 nM | 1.89 nM | > 30000 nM | 1330 nM | –
CNC(=O)c1ccc(N2CCN(Cc3ccc4c(c3)[nH]c(=O)c3occc34)CC2)c(F)n1 [Example 112, 7-((4-(2-fluoro-6-(methylcarbamoyl)pyridin-3-yl)piperazin-1-yl)methyl)furo[2,3-c]quinolin-4(5H)-one] | 0.58 nM | 0.26 nM | 1300 nM | 158 nM | –
CNC(=O)c1ccc(N2CCN(Cc3ccc4c([nH]c(=O)c5cocc54)c3F)CC2)c(F)n1 [Example 115, 7-((4-(2-fluoro-6-(methylcarbamoyl)pyridin-3-yl)piperazin-1-yl)methyl)-6-fluorofuro[3,4-c]quinolin-4(5H)-one] | 3.41 nM | 0.47 nM | 13800 nM | 340 nM | –
CNC(=O)c1ccc(N2CCN(Cc3ccc4c([nH]c(=O)c5c(F)cnn54)c3F)CC2)c(C)n1 [Example 121, 7-((4-(2-methyl-6-(methylcarbamoyl)pyridin-3-yl)piperazin-1-yl)methyl)-3,6-difluoropyrazolo[1,5-a]quinoxalin-4(5H)-one] | 1.72 nM | 1.06 nM | 10500 nM | 2820 nM | –
CNC(=O)c1ccc(N2CCN(Cc3ccc4c([nH]c(=O)c5c(F)cnn54)c3F)CC2)c(F)n1 [Example 122, 7-((4-(2-fluoro-6-(methylcarbamoyl)pyridin-3-yl)piperazin-1-yl)methyl)-3,6-difluoropyrazolo[1,5-a]quinoxalin-4(5H)-one] | – | 0.53 nM | > 30000 nM | 462 nM | 1.32 nM
Cc1cnn2c1c(=O)[nH]c1c(F)c(CN3CCN(c4ccc(C(=O)NC5CC5)nc4F)CC3)ccc12 [Example 126, 7-((4-(2-fluoro-6-(cyclopropylcarbamoyl)pyridin-3-yl)piperazin-1-yl)methyl)-6-fluoro-3-methylpyrazolo[1,5-a]quinoxalin-4(5H)-one] | 4.5 nM | 0.48 nM | > 25000 nM | 731 nM | –
CNC(=O)c1ccc(N2CCN(Cc3ccc4c([nH]c(=O)c5c(C)cnn54)c3F)CC2)c(C#N)n1 [Example 128, 7-((4-(2-cyano-6-(methylcarbamoyl)pyridin-3-yl)piperazin-1-yl)methyl)-6-fluoro-3-methylpyrazolo[1,5-a]quinoxalin-4(5H)-one] | 1.58 nM | 0.48 nM | > 30000 nM | 2500 nM | –
Cc1cnn2c1c(=O)[nH]c1c(F)c(CN3CCN(c4ccc(C(=O)NCC(F)F)nc4F)CC3)ccc12 [Example 129, 7-((4-(2-fluoro-6-(2,2-difluoroethylcarbamoyl)pyridin-3-yl)piperazin-1-yl)methyl)-6-fluoro-3-methylpyrazolo[1,5-a]quinoxalin-4(5H)-one] | 5.02 nM | 0.5 nM | > 30000 nM | > 10000 nM | –
CNC(=O)c1ccc(N2CCN(Cc3ccc4c([nH]c(=O)c5c(C)cnn54)c3F)CC2)c(C(F)(F)F)n1 [Example 133, 7-((4-(2-trifluoromethyl-6-(methylcarbamoyl)pyridin-3-yl)piperazin-1-yl)methyl)-6-fluoro-3-methylpyrazolo[1,5-a]quinoxalin-4(5H)-one] | 23 nM | 0.57 nM | > 30000 nM | > 10000 nM | –
CNC(=O)c1ccc(N2CCN(Cc3ccc4c([nH]c(=O)n5cc(C)nc45)c3F)CC2)c(F)n1 [Example 140, 8-((4-(2-fluoro-6-(methylcarbamoyl)pyridin-3-yl)piperazin-1-yl)methyl)-2-methyl-7-fluoroimidazo[1,2-c]quinazolin-5(6H)-one] | 2.24 nM | 0.84 nM | 28900 nM | 1250 nM | –
CNC(=O)c1ccc(N2CCN(Cc3ccc4c([nH]c(=O)n5c(C)cnc45)c3F)CC2)c(F)n1 [Example 141, 8-((4-(2-fluoro-6-(methylcarbamoyl)pyridin-3-yl)piperazin-1-yl)methyl)-3-methyl-7-fluoroimidazo[1,2-c]quinazolin-5(6H)-one] | 24.6 nM | 1.29 nM | > 25000 nM | 1890 nM | –
CNC(=O)c1ccc(N2CCN(Cc3ccc4c(c3)[nH]c(=O)c3cocc34)CC2)c(F)n1 [Example 143, 7-((4-(2-fluoro-6-(methylcarbamoyl)pyridin-3-yl)piperazin-1-yl)methyl)furo[3,4-c]quinolin-4(5H)-one] | 3.5 nM | 0.46 nM | 1200 nM | 166 nM | –
CNC(=O)c1ccc(N2CCN(Cc3cc4[nH]c(=O)c5c(C)cnn5c4cc3F)CC2)c(F)n1 [Example 168, 8-fluoro-7-((4-(2-fluoro-6-(methylcarbamoyl)pyridin-3-yl)piperazin-1-yl)methyl)-3-methylpyrazolo[1,5-a]quinoxalin-4(5H)-one] | 8.02 nM | 0.61 nM | > 30000 nM | 145 nM | –
CNC(=O)c1ccc(N2CCN(Cc3cc(F)c4c(c3)[nH]c(=O)c3c(F)cnn34)CC2)c(F)n1 [Example 177, 3,9-difluoro-7-((4-(2-fluoro-6-(methylcarbamoyl)pyridin-3-yl)piperazin-1-yl)methyl)pyrazolo[1,5-a]quinoxalin-4(5H)-one] | 1.58 nM | 0.32 nM | 630 nM | 93.5 nM | –
CNC(=O)c1ccc(N2CCN(Cc3ccc4c([nH]c(=O)c5c(C(F)(F)F)cnn54)c3F)CC2)c(F)n1 [Example 179, 7-((4-(2-fluoro-6-(methylcarbamoyl)pyridin-3-yl)piperazin-1-yl)methyl)-3-trifluoromethyl-6-fluoropyrazolo[1,5-a]quinoxalin-4(5H)-one] | 4.49 nM | 0.5 nM | > 30000 nM | 67.1 nM | –
CCNC(=O)c1ccc(N2CCN(Cc3ccc4c([nH]c(=O)c5c(F)cnn54)c3F)CC2)c(F)n1 [Example 180, 7-((4-(2-fluoro-6-(ethylcarbamoyl)pyridin-3-yl)piperazin-1-yl)methyl)-3,6-difluoropyrazolo[1,5-a]quinoxalin-4(5H)-one] | 1.24 nM | 0.24 nM | > 30000 nM | 431 nM | –
O=C(NC1CC1)c1ccc(N2CCN(Cc3ccc4c([nH]c(=O)c5c(F)cnn54)c3F)CC2)c(F)n1 [Example 181, 7-((4-(2-fluoro-6-(cyclopropylcarbamoyl)pyridin-3-yl)piperazin-1-yl)methyl)-3,6-difluoropyrazolo[1,5-a]quinoxalin-4(5H)-one] | 1.9 nM | 0.23 nM | > 30000 nM | 315 nM | –
CNC(=O)c1ccc(N2CCN(Cc3cc4[nH]c(=O)c5c(F)cnn5c4cc3F)CC2)c(F)n1 [Example 182, 7-((4-(2-fluoro-6-(methylcarbamoyl)pyridin-3-yl)piperazin-1-yl)methyl)-3,8-difluoropyrazolo[1,5-a]quinoxalin-4(5H)-one] | 1.4 nM | 0.32 nM | > 30000 nM | 93.5 nM | –
CNC(=O)c1ccc(N2CCN(Cc3cc4[nH]c(=O)c5c(F)cnn5c4cc3F)CC2)c(C)n1 [Example 183, 7-((4-(2-methyl-6-(methylcarbamoyl)pyridin-3-yl)piperazin-1-yl)methyl)-3,8-difluoropyrazolo[1,5-a]quinoxalin-4(5H)-one] | 1.76 nM | 0.28 nM | 1590 nM | 1390 nM | –
